Assay results taken from patent publication US10238642B2, “Methods for treating neurogenic orthostatic hypotension” (Theravance Biopharma R&D IP, LLC, priority 2016, dated 2019).
Where “and” joins values, the source holds several entries; their conditions need not be identical. Identical values can stand only once.

Tests used:
[1] = Differential scanning calorimetry; assay type: physicochemical; conditions: heated 10° C./min from 22° C. to 250° C.
Description: Differential scanning calorimetry (DSC) was performed using a TA Instruments Model Q-100 module with a Thermal Analyst controller. Data were collected and analyzed using TA Instruments Thermal Solutions software. A 2.8 mg sample of the crystalline hydrochloride salt of Example 8 was accurately weighed into a covered aluminum pan. After a 5 minute isothermal equilibration period at 22° C., the sample was heated using a linear heating ramp of 10° C./min from 22° C. to 250° C. A representative DSC thermograph is shown in FIG. 2 of U.S. Pat. No. 8,304,433 B2.

subjects with nOH = test: Phase 2 clinical study in subjects with nOH, Part A (dose escalation); assay type: in vivo, human; set-up: key to Improvement in Seated SBP / Improvement in Time Standing / Improvement in Dizziness or Lightheadedness: ✓: Dose-related improvement observed relative to placebo
From the text: A Phase 2 clinical trial study is being conducted with 4-[2-(2,4,6-trifluorophenoxymethyl)phenyl]piperidine hydrochloride (“Study Compound”). The study is a multicenter, randomized, two-part, single-(Part A) and double-blind (Part B) study of the Study Compound versus placebo in subjects with nOH. An open-label, extension study to evaluate efficacy, safety and tolerability of the Study Compound will also be conducted (Part C). Part A follows a daily, single, escalating dose design starting with placebo on Day 1, followed by a dose of 1 mg of Study Compound on Day 2, and proceeding to escalating higher doses of Study Compound on a daily basis up to a maximum dose of 10 mg based on safety, tolerability, and determination of a pressor effect.
Subjects included in the study are male or female between the age of 40 and 80 years (inclusive) that have been diagnosed with symptomatic orthostatic hypotension due to pure autonomic failure, multiple system atrophy or Parkinson's disease (i.e., PD plus symptoms). At screening, autonomic function testing is conducted to confirm the diagnosis of autonomic dysfunction including sinus arrhythmia and the Valsalva maneuver.
In Part A, all doses (Study Compound and placebo) are administered in a single-blind manner (i.e., subject remains blinded) using an oral dosing solution. Up to 30 subjects are enrolled in Part A. Two days before the start of Part A, subjects are admitted to the clinical research center (CRC) where they remain during the entire dose escalation period. On Day 1, subjects receive a single dose of placebo. On Day 2, subjects receive a single 1 mg dose of Study Compound. On each subsequent day, subjects receive a single escalating dose of Study Compound as follows: 2.5 mg on Day 3; 5 mg on Day 4; 10 mg on Day 5 unless the following preset stopping criteria occur: • (a) a determination from the Investigator (in collaboration with the Sponsor) that administration of the subsequent next dose may pose a safety concern; • (b) SBP ≥180 mm or DBP ≥110 mm in the sitting position replicated 2 more times over an hour; • (c) intolerable side effects as determined by the Investigator; or • (d) subject receives maximum dose of study medication specified by the protocol.
Once the subject meets any of the above criteria, no further dose escalation is performed. Following a post-dosing observation day in the clinic, the subject is released from the CRC.
Seated and standing systolic blood pressure and completion of an Orthostatic Hypotension Symptom Assessment (OHSA) questionnaire are used to assess efficacy. For Part C, ambulatory blood pressure monitoring is used if available to measure blood pressure every 2 hours for 24-hour period before dosing on Day 1; and 72 to 48 hours before Day 15, Day 29, Day 85 and Day 169 clinic visits. Additionally, blood pressure is taken 20-30 mins before eating each morning about being supine (30 degree elevation) for at least 10 mins.
For both Parts A and B, the primary study endpoint is the difference from placebo of seated systolic blood pressure at 6 to 8 hours after drug administration. For Part A, placebo refers to the Day 1 visit, and the difference from placebo refers to the time-matched difference from each Study Compound dosing day (Days 2 through 5) relative to placebo dosing (Day 1). For Part C, primary study endpoint is improvement in the Likert scale for “dizziness, lightheadedness, feeling faint, or feeling like you might black out” (OHSA question 1) at week 4. […]

other CYP450 enzymes = conditions: cited from earlier work
[2] = individual patient, Part A, oral solution up to 10 mg/day, vs placebo, preliminary

Cl.Fc1cc(F)c(OCc2ccccc2C2CCNCC2)c(F)c1 [4-[2-(2,4,6-Trifluorophenoxymethyl)phenyl]piperidine Hydrochloride]
thermal stability by DSC [1]: excellent thermal stability | MSA patients showing improvement relative to placebo in at least one category (subjects with nOH; MSA patients completing Part A, 6 of 6): 100% | Improvement in Dizziness or Lightheadedness (subjects with nOH; [2]): ✓ | Improvement in Time Standing (subjects with nOH; [2]): ✓ | Improvement in Seated SBP (subjects with nOH; individual patient, Part A, oral solution up to 10 mg/day, vs placebo, preliminary, Hydrochloride): ✓ (6×) and ✓^2 | patients showing an improvement relative to placebo in at least one of seated SBP, standing time, dizziness or lightheadedness (subjects with nOH; patients completing Part A, 10 of 12): 83%

CNCC[C@@H](Oc1ccccc1C)c1ccccc1 [atomoxetine]
impact of inhibition of other CYP450 enzymes on metabolism (other CYP450 enzymes): not significantly impacted
